{"source": "paper PMC12394895", "about": "“Detection and characterisation of ligand-induced conformational changes in acetylcholine binding proteins using biosensors and X-ray crystallography” (RSC Chemical Biology, 2025)", "key": {"[1]": {"molecular_target": "T1, Ls-AChBP (Lymnaea stagnalis, UniProt P58154)", "T1 construct": "soluble homopentamer, AChBP pentamer 125 kDa; amine-coupled for SAW and GCI", "T1 sequence (P58154 20-229)": "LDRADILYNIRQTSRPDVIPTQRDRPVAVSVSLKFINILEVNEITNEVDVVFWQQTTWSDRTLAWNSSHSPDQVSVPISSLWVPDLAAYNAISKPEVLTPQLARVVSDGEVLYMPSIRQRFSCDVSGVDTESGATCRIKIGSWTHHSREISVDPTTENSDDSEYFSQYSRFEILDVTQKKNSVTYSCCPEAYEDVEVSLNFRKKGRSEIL", "test": "GCI biosensor, steady state", "type": "binding"}, "[2]": {"molecular_target": "T1, Ls-AChBP", "test": "SAW biosensor, phase signal", "type": "binding", "details": "pH 7.4, 25 °C, 5% DMSO; immobilised protein; unreliable (very rough approximation, steady state not always reached)", "from_the_text": "SAW biosensor, phase signal on Ls-AChBP"}}}
{"molecule": "Cn1ccnc1/C=C/c1ccc(O)c(O)c1", "note": "[VUF22430]", "values": [{"measurement": "Kd", "setting": "[1]", "value": 1.3, "unit": "µM"}]}
{"molecule": "CCn1ccnc1-c1cccc(-c2ccccn2)n1", "note": "[VUF24234]", "values": [{"measurement": "Kd", "setting": "[1]", "value": 5, "unit": "µM"}]}
{"molecule": "CC(=O)OCC[N+](C)(C)C", "note": "[acetylcholine]", "values": [{"measurement": "Phase KD", "setting": "[2]", "value": 0.61, "unit": "µM"}]}
{"molecule": "CN1CCC[C@H]1c1cccnc1", "note": "[nicotine]", "values": [{"measurement": "Phase KD", "setting": "[2]", "value": 0.035, "unit": "µM"}]}
{"molecule": "VUF6105", "values": [{"measurement": "Phase KD", "setting": "[2]", "value": 12, "unit": "µM"}]}
